This is an account of results in article PMC3375340 (Journal of Medicinal Chemistry, 2012).

In brackets after ≈: the same amount, converted by molar mass.

The target of one data set is M. tuberculosis MenA (Mycobacterium tuberculosis, UniProt P9WIP3). Kind of data set: MenA enzyme inhibitory assay. The class given is biochemical. The conditions noted are these: for IC50: MenA Inhibition IC50, Mtb MenA, dose-response of DMMK formation.
In data set [1] the test system is M. tuberculosis electron transport system. The data set is described as follows: Oxygen consumption assay. The class given is cell-based. The conditions noted are these: for electron transport system inhibition (conclusion): from oxygen consumption assay.
For data set [2], the system named is M. bovis, M. intracellulare, and M. smegmatis. The format is cell-based, Mycobacterium species.
For data set [3], the system named is M. intracellulare ATCC15984. Kind of data set: MIC, Mycobacterium species panel. The format is cell-based.
Another data set in a line: in vitro. The conditions noted are these: monkey.
In the next data set the test system is M. bovis BCG. Kind of data set: microbe, parasite or virus in culture. The class given is cell-based. The conditions noted are these: Mycobacterium tuberculosis variant bovis BCG.
Data set [4] relates to M. tuberculosis H37Rv. The data set is described as follows: Microplate alamar blue assay. The class given is cell-based. The conditions noted are these: Mycobacterium tuberculosis, read-out: MIC against Mtb (MABA).
The subject of data set [5] is M. tuberculosis H37Rv. Kind of data set: MIC, Mycobacterium species panel. The class given is cell-based.

Chain of M. tuberculosis MenA (P9WIP3 whole entry): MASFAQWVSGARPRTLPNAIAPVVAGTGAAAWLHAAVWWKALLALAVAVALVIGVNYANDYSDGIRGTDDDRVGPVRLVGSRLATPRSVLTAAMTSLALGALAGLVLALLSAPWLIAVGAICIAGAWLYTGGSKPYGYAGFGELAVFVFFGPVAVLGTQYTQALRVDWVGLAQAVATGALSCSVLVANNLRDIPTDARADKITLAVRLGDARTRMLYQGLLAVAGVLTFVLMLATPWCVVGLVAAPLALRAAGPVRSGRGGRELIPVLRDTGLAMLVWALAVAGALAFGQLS

Turning to `CCCCCC[C@H](CN1CCC(COc2cccc(C(=O)c3ccc(Cl)cc3)c2)CC1)OC(N)=O` [(R)-12, (R)-1-(4-((3-(4-chlorobenzoyl)phenoxy)methyl)piperidin-1-yl)octan-2-yl carbamate], the “fold better MenA enzyme inhibitory activity compared to the alcohol (R)-11” value at M. tuberculosis MenA (Mtb MenA IC50 comparison) came to 6 fold. Moreover, the “electron transport system inhibition (conclusion)” value in data set [1] is “very weak (or are not) electron transport system inhibitors”. In addition, the “killing concentration, other Mycobacterium species” value in data set [2] is given as 3.0~6.5 μg/mL. As to `CCCCCC[C@H](CN1CCC(COc2cccc(C(=NOC)c3ccc(Cl)cc3)c2)CC1)OC(N)=O` [(R)-13, (R)-1-(4-((3-((4-Chlorophenyl)(methoxyimino)methyl)phenoxy)methyl)piperidin-1-yl)octan-2-yl carbamate], the MIC in data set [3] stood at 6.5 µg/mL (≈ 12.3 µM); in the data set on M. bovis BCG, 2.95 µg/mL (≈ 5.56 µM); with M. tuberculosis H37Rv [4], 2.31 µg/mL (≈ 4.36 µM). Moreover, the midpoint of inhibition at M. tuberculosis MenA, the IC50, lay at 1.2 µM. Also, in “in vitro”, the selectivity ratio was greater than 10. The “killing concentration, other Mycobacterium species” value in data set [2] was 3.0~6.5 μg/mL.

Take `CCCCCCC[C@@H](O)c1cccc(CN2CCC(COc3cccc(C(=NOC)c4ccc(Cl)cc4)c3)CC2)c1` [(R)-15, (R)-(4-chlorophenyl)(3-((1-(3-(1-hydroxyoctyl)benzyl)piperidin-4-yl)methoxy)phenyl)methanone O-methyl oxime]: the half-maximal inhibitory concentration (IC50) at M. tuberculosis MenA was determined as 15 µM. On to `CCCCCC[C@H](CN1CCC(COc2ccc(C(=O)c3ccc(Cl)cc3)c(Cl)c2)CC1)OC(N)=O` [(R)-17, (R)-1-(4-((3-chloro-4-(4-chlorobenzoyl)phenoxy)methyl)piperidin-1-yl)octan-2-yl carbamate], for which the “electron transport system inhibition (conclusion)” value in data set [1] was “very weak (or are not) electron transport system inhibitors”. Molecule `CCCCCCC[C@@H](O)c1cccc(CN2CCC(COc3ccc(C(=NOC)c4ccc(Cl)cc4)c(Cl)c3)CC2)c1` [(R)-20, (R)-(2-Chloro-4-((1-(3-(1-hydroxyoctyl)benzyl)piperidin-4-yl)methoxy)phenyl)(4-chlorophenyl) methanone O-methyl oxime] yielded an IC50 on M. tuberculosis MenA of 15 µM. On the same count and under the same terms, under `CCCCCCC[C@H](O)c1cccc(CN2CCC(COc3cccc(C(=O)c4ccc(Cl)cc4)c3)CC2)c1` [(S)-3, (S)-(4-chlorophenyl)(3-((1-(3-(1-hydroxyoctyl)benzyl)piperidin-4-yl)methoxy)phenyl) methanone] stands 20 µM.

For `CCCCCC[C@@H](CN1CCC(COc2ccc(C(=O)c3ccc(Cl)cc3)c(Cl)c2)CC1)OC(N)=O` [(S)-17], the “concentration showing decolorization of methylene blue” value in data set [1] (Mtb, 37 °C, 22h, above the MIC) stood at 12.5 µg/mL.

On to `CCCCCCC[C@H](O)c1cccc(CN2CCC(COc3ccc(C(=NOC)c4ccc(Cl)cc4)c(Cl)c3)CC2)c1` [(S)-20, (S)-(2-Chloro-4-((1-(3-(1-hydroxyoctyl)benzyl)piperidin-4-yl)methoxy)phenyl)(4-chlorophenyl) methanone O-methyl oxime], for which the concentration for half-maximal inhibition (IC50) on M. tuberculosis MenA was found to be 20 µM. For the molecule `NNC(=O)c1ccncc1` [INH, isoniazid], in the data set with M. tuberculosis H37Rv [5], the MIC stood at 0.24 µg/mL (≈ 1.75 µM).
